The series is described as follows: surface tension by Du Noüy ring method, Krüss K20 EasyDyne tensiometer. It is filed as physicochemical. Conditions: for Surface tension: room temperature. The procedure: As used herein, the term “surface tension” refers to the force required to increase the unit area of a surface of a liquid or of an interface between two liquids or between a liquid and a gas, generally stated in units of dynes/cm. Surface tensions described herein are measured by the Du Noüy ring method utilizing an EasyDyne tensiometer model K20 marketed by Krüss USA, Matthews, N.C.
Surface tension of a fluid containing water was determined prior to and after mixing with various concentrations of various water soluble organic solvents in water. […] The study was performed at room temperature utilizing a Kruss Surface Tensiometer, Model K20 EasyDyne (Kruss USA, Matthews, N.C.) and the results are shown in Table 4. Values for surface tension are in dynes/cm.

A value given as a limit tells only on which side of the number the result lay.

For the molecule `OCCCO` [1,3-Propanediol, 1,3-propanediol], the Surface tension is, setting by setting: (1.0 % w/w solvent in water) 69.8 dynes/cm; (2.5 % w/w solvent in water) 68.1 dynes/cm; (5 % w/w solvent in water) 64.6 dynes/cm; (7.5 % w/w solvent in water) 64.4 dynes/cm; (10 % w/w solvent in water) 61.2 dynes/cm; (12.5 % w/w solvent in water) 61.1 dynes/cm. Moreover, the Surface tension reads like this: (15.0 % w/w solvent in water) 61.0 dynes/cm; (17.5 % w/w solvent in water) 58.9 dynes/cm; (20 % w/w solvent in water) 60.4 dynes/cm; (22.5 % w/w solvent in water) 58.2 dynes/cm; (25 % w/w solvent in water) 58.3 dynes/cm.

As to `CO[C@H]1CO[C@H]2[C@@H]1OC[C@H]2OC` [Dimethyl Isosorbide, dimethyl isosorbide], the Surface tension worked out at 66.0 dynes/cm (1.0 % w/w solvent in water); 61.7 dynes/cm (2.5 % w/w solvent in water); 52.8 dynes/cm (5 % w/w solvent in water); 52.1 dynes/cm (7.5 % w/w solvent in water); 47.9 dynes/cm (10 % w/w solvent in water); 46.4 dynes/cm (12.5 % w/w solvent in water). Moreover, the Surface tension (15.0 % w/w solvent in water) was 43.5 dynes/cm; the Surface tension (17.5 % w/w solvent in water) stood at 41.9 dynes/cm; the Surface tension (20 % w/w solvent in water) is given as 38.6 dynes/cm; the Surface tension (22.5 % w/w solvent in water) turned out to be 40.5 dynes/cm; the Surface tension (25 % w/w solvent in water) turned out to be 41.7 dynes/cm; the Surface tension (100 % w/w solvent) stood at 39.3 dynes/cm.

Consider `CCO` [Ethanol (200 proof), ethanol], for which the Surface tension by setting is: (1.0 % w/w solvent in water) 67.4 dynes/cm; (2.5 % w/w solvent in water) 62.0 dynes/cm; (5 % w/w solvent in water) 55.9 dynes/cm; (7.5 % w/w solvent in water) 51.4 dynes/cm; (10 % w/w solvent in water) 47.8 dynes/cm; (12.5 % w/w solvent in water) 44.6 dynes/cm. Also, the Surface tension runs as follows: (15.0 % w/w solvent in water) 42.2 dynes/cm; (17.5 % w/w solvent in water) 40.2 dynes/cm; (20 % w/w solvent in water) 38.0 dynes/cm; (22.5 % w/w solvent in water) 36.6 dynes/cm; (25 % w/w solvent in water) 34.9 dynes/cm; (100 % w/w solvent) 22.3 dynes/cm.

Molecule `CCOCCOCCO` [Ethoxy Diglycol NF, ethoxydiglycol] registered a Surface tension (1.0 % w/w solvent in water) of 66.2 dynes/cm; a Surface tension (2.5 % w/w solvent in water) of 62.5 dynes/cm; a Surface tension (5 % w/w solvent in water) of 56.8 dynes/cm; a Surface tension (7.5 % w/w solvent in water) of 55.3 dynes/cm; a Surface tension (10 % w/w solvent in water) of 53.1 dynes/cm; a Surface tension (12.5 % w/w solvent in water) of 50.4 dynes/cm. Further, the Surface tension is, setting by setting: (15.0 % w/w solvent in water) 49.7 dynes/cm; (17.5 % w/w solvent in water) 47.6 dynes/cm; (20 % w/w solvent in water) 43.2 dynes/cm; (22.5 % w/w solvent in water) 43.1 dynes/cm; (25 % w/w solvent in water) 43.8 dynes/cm; (100 % w/w solvent) 32.0 dynes/cm.

For `OCC(O)CO` [Glycerin USP, glycerin], the Surface tension is, setting by setting: (25 % w/w solvent in water) 69.8 dynes/cm; (50 % w/w solvent in water) 68.9 dynes/cm; (75 % w/w solvent in water) 66.4 dynes/cm; (100 % w/w solvent) 62.0 dynes/cm. Besides, where the note is “by itself, at concentrations of 75% or less”, the “suitability for the present method” value is on record as “not suitable”.

As for `CC(C)O` [Isopropyl Alcohol, isopropyl alcohol], the Surface tension reads like this: (1.0 % w/w solvent in water) 62.1 dynes/cm; (5 % w/w solvent in water) 47.3 dynes/cm; (7.5 % w/w solvent in water) 42.0 dynes/cm; (10 % w/w solvent in water) 38.6 dynes/cm; (12.5 % w/w solvent in water) 35.7 dynes/cm; (15.0 % w/w solvent in water) 33.1 dynes/cm. The Surface tension by setting is: (17.5 % w/w solvent in water) 31.1 dynes/cm; (20 % w/w solvent in water) 29.5 dynes/cm; (22.5 % w/w solvent in water) 28.1 dynes/cm; (25 % w/w solvent in water) 27.3 dynes/cm; (100 % w/w solvent) 21.1 dynes/cm.

In turn, `CC1COC(=O)O1` (stereo not shown) [Propylene Carbonate, propylene carbonate] yielded a Surface tension (1.0 % w/w solvent in water) of 68.5 dynes/cm; a Surface tension (2.5 % w/w solvent in water) of 63.8 dynes/cm; a Surface tension (5 % w/w solvent in water) of 56.8 dynes/cm; a Surface tension (7.5 % w/w solvent in water) of 49.6 dynes/cm; a Surface tension (10 % w/w solvent in water) of 45.9 dynes/cm; a Surface tension (12.5 % w/w solvent in water) of 46.5 dynes/cm. For the same molecule, the Surface tension is recorded as 44.1 dynes/cm (15.0 % w/w solvent in water) and 43.5 dynes/cm (17.5 % w/w solvent in water).

`CC(O)CO` (stereo not shown) [Propylene Glycol USP, propylene glycol]: the Surface tension by setting is: (1.0 % w/w solvent in water) 70.8 dynes/cm; (2.5 % w/w solvent in water) 68.7 dynes/cm; (5 % w/w solvent in water) 65.9 dynes/cm; (7.5 % w/w solvent in water) 63.6 dynes/cm; (10 % w/w solvent in water) 61.7 dynes/cm; (12.5 % w/w solvent in water) 59.7 dynes/cm. Moreover, the Surface tension reads like this: (15.0 % w/w solvent in water) 58.3 dynes/cm; (17.5 % w/w solvent in water) 56.5 dynes/cm; (20 % w/w solvent in water) 55.2 dynes/cm; (22.5 % w/w solvent in water) 54.1 dynes/cm; (25 % w/w solvent in water) 52.8 dynes/cm; (30 % w/w solvent in water) 50.6 dynes/cm. In addition, the Surface tension (100 % w/w solvent) is 36.1 dynes/cm. For the same molecule, under “solvent in water, from the data of Table 4”, the “concentration suitable for the invention (surface tension less than 64 dynes/cm)” value is ≥ 7.5%.

Values taken from patent publication US9744150B2, “Suspension containing micronized benzoyl peroxide” (Dow Pharmaceutical Sciences Inc., priority 2009, dated 2017).
